Literature values as cited in patent publication US11737985B2 (priority 2013, dated 2023).
Where two headings read alike, the source gives them in different places.

Assays:
[1] = in vivo; cited from earlier work
[2] = cited from earlier work; for mean concentration in plasma: cancer patients; for Cmax / Tmax: single dose 182 mg controlled-release tablet

For `NNc1nncc2ccccc12` [hydralazine, 1-hydrazinophthalazine], the systemic clearance [1] is given as “approximately 50 ml/kg/min”, the “mean concentration in plasma” value ([2]; fast acetylators, 182 mg daily controlled-release) is given as 239.1 ng/mL and the “mean concentration in plasma” value ([2]; slow acetylators, 83 mg daily controlled-release) is given as 259.2 ng/mL. The Cmax ([2]; fast acetylators, ± SD) was 208.4 ± 56.9 ng/mL, the Tmax ([2]; fast acetylators) was 2.8 ± 2.5 h and the Cmax ([2]; slow acetylators) was 470.4 ± 162.8 ng/mL. For the same molecule, the Tmax ([2]; slow acetylators) was 4.4 ± 3.1 h.
